According to patent US20250136543A1, “8-[(2-HYDROXYNAPHTHALEN-1-YL)DIAZENYL]NAPHTHALENE-1,3-DISULFONIC ACID AS AN ANTIOXIDANT COMPOUND” (KING FAISAL UNIVERSITY, priority 2023, published 2025):

Assay: DPPH radical scavenging antioxidant test
Assay type: biochemical
Conditions: 517 nm; for Inhibition (radical scavenging inhibition): 0.2 mL DPPH (0.75 mM), compound 3 μM in ethanol, 30 min incubation in the dark
Description: The antioxidant properties of the 8-[(2-hydroxynaphthalen-1-yl)diazenyl]naphthalene-1,3-disulfonic acid were studied by adding 0.2 mL DPPH (0.75 mM)) to compound 8-[(2-hydroxynaphthalen-1-yl)diazenyl]naphthalene-1,3-disulfonic acid (III) (3 μM) in ethanol. After 30 min of incubation in the dark, the absorbance was read against a blank at 517 nm. Ascorbic acid (vitamin C) was used as standard antioxidants (positive control). A blank sample was prepared by 0.2 ml of DPPH in 3 ml ethanol. A negative control sample was run using ethanol instead of the sample. The radical scavenging inhibition was calculated using the following equation: […]
The antioxidant activity for the synthesized compound is listed in Table 1, using Vitamin C as a reference.

SMILES | Inhibition (radical scavenging inhibition) [%] | antioxidant potential compared to vitamin C (DPPH in vitro test, vitamin C as positive control)
O=S(=O)(O)c1cc(S(=O)(=O)O)c2c(/N=N/c3c(O)ccc4ccccc34)cccc2c1 [Product III, 8-[(2-hydroxynaphthalen-1-yl)diazenyl]naphthalene-1,3-disulfonic acid] | 54 | high potential as an antioxidant compared to vitamin C
O=C1O[C@H]([C@@H](O)CO)C(O)=C1O [vit c, Ascorbic acid, reference compound] | 74 | –
